Test results: article PMC8400542, “Anti-Inflammatory, Antipyretic, and Analgesic Properties of Potamogeton perfoliatus Extract: In Vitro and In Vivo Study” (Molecules, 2021)

Tests used:
[1] = Total antioxidant capacity (TAC) ELISA kit assay; settings: mean ± SE
Procedure: The antioxidant potential of the extract was evaluated by determining its TAC using a TAC ELISA kit (MBS726896, my BioSource, Inc., San Diego, CA, USA) in accordance with the manufacturer’s instructions and compared to the standard antioxidant, ascorbic acid as previously described Sobeh et al..

[2] = system: Brewer's yeast-induced pyrexia in mice; test: Brewer's yeast-induced pyrexia; format: in vivo, mouse; settings: 150 mg/kg
Procedure: Pyrexia in mice was induced as previously reported by Liu et al. with minor modifications. The animals’ initial rectum temperature was determined using a lubricated digital thermometer. Suspension of Brewer’s yeast was prepared in normal saline (30%) and injected subcutaneously behind the neck of the animal (1 mL/100 g). After 18 h, rectal temperatures of the mice were determined again (T0). […] Pyretic animals received P. perfoliatus extract (200, 400, and 600 mg/kg, orally), paracetamol (150 mg/kg), or vehicle. Rectal temperatures were measured at 30 min, 1, 2, 3 and 24 h following the different treatments.

[3] = system: heat-induced nociceptive pain in mice; test: Hot plate test (central antinociception); settings: 10 mg/kg
Procedure: To investigate the possible central analgesic activity of the studied extract, the hot plate test was performed according to Sobeh et al. [3]. […] One hour later, each individual mouse was placed on a hot plate preheated at 55 ± 1 °C and observed for any response to the heat-induced nociceptive pain (licking the fore and hind paws, hind paw lifting, or jumping). […] The overall antinociceptive activity of the extract was estimated by calculating the area under the curve (AUC) for the latency responses at the stated time points using GraphPad Prism.
(B) Hot plate response latency (s) assay. (C) AUC of response latency shown in panel (B).

[4] = system: carrageenan-induced paw edema in rats; settings: 20 mg/kg, compared to the control group; cited from earlier work
[5] = system: carrageenan-induced leukocyte migration in mice; settings: cited from earlier work
[6] = system: carrageenan-induced leukocyte migration in mice; test: Carrageenan-induced leukocyte migration into the peritoneal cavity; format: in vivo, mouse; settings: 20 mg/kg, p.o.
Procedure: Three hours later, the mice were euthanized, and each peritoneal cavity was washed with 3 mL of phosphate-buffered saline (PBS) containing 1 mM EDTA. The total leukocyte count was determined in each peritoneal cavity wash using a hemocytometer and presented as number of cells/mL [3].
(§1) Figure 3 (A) Results from P. perfoliatus extract on carrageenan-induced leukocyte migration into the peritoneal cavity in mice (total number × 10^6). […] (B) Results from P. perfoliatus extract on acetic acid-induced vascular permeability. Mice received different treatments 1 h before acetic acid (0.6%, i.p.) and Evans blue dye injections. The amount of dye extravasation into the abdominal cavity was quantified and used as an indicator of inflammation degree. The results are shown as means ± SEM (n = 5–6). * p < 0.05 compared to saline group. ^# p < 0.05 compared to control (carrageenan or acetic acid only treated group).

[7] = system: acetic acid-induced writhing in mice; test: Acetic acid-induced abdominal writhing; settings: 20 mg/kg, p.o.
Procedure: The peripheral analgesic activity of the extract was evaluated by the acetic acid-induced writhing model in mice according to Sobeh et al. [3]. […] The number of writhes, manifested as extension of hind legs, constriction of abdomen, or turning of trunk was evaluated within 25 min. The reduction in the number of writhes as compared to the control group is indicative of the analgesic potential of the extract [3]. The percent inhibition of writhing was calculated using the following formula as previously reported [18]. % Analgesic activity = (mean writhing count (control-treatment)/mean writhing count (control)).
The data results were quantified at one-hour intervals after administration of either the extract (200 and 400 mg/kg, p.o.) or nalbuphine (10 mg/kg, p.o.).

[8] = system: acetic acid-induced vascular permeability in mice; test: Acetic acid-induced vascular permeability (Evans blue); format: in vivo, mouse; settings: 20 mg/kg, p.o., compared to control mice
Procedure: To study the effect of the extract on the vascular phase of inflammation, acetic acid-induced vascular permeability was performed as described previously by Sobeh et al.. […] One hour later, Evans blue (0.25% solution in normal saline, 0.2 mL) was injected in the tail vein. Acetic acid (0.6% in normal saline, 1 mL/100 g) was then injected after 30 min in the peritoneal cavity of the treated mice. The normal control was injected with normal saline only. Mice were euthanized 30 min later by cervical dislocation, the abdominal cavities were washed with 3 mL saline solution and the collected washings were then centrifuged at 3000 rpm for 10 min. The vascular permeability is proportional to the absorbance of Evans blue dye in the supernatant, which was measured at 610 nm using a plate reader (Biotek, Winooski, VT, USA).
as §1, with “The results are shown as means ± SEM (n = 5–6). * p < 0.05 compared to saline group. ^# p < 0.05 compared to control (carrageenan or acetic acid only treated group).” left out

[9] = target: 5-lipoxygenase (LOX); test: Lipoxygenase inhibition, enzyme immunoassay kit; format: biochemical; settings: mean ± SE
Procedure: The in vitro enzymatic activities were determined, utilizing enzyme immunoassay kits (Cayman Chemical, Ann Arbor, MI, USA) following the manufacturer’s instructions and the study by Adellall et al..

`O=C1O[C@H]([C@@H](O)CO)C(O)=C1O` [Ascorbic acid] showed a TAC [1] of 28.27 ± 1.83 U/L.
For `CC(=O)Nc1ccc(O)cc1` [Paracetamol], the “Rectal Temperature Recorded Following Different Treatments” value ([2]; 0.5 h) was 38.14 ± 0.19 °C, the “Rectal Temperature Recorded Following Different Treatments” value ([2]; 1 h) was 37.50 ± 0.31 °C and the “Rectal Temperature Recorded Following Different Treatments” value ([2]; 2 h) was 37.12 ± 0.29 °C. The “Rectal Temperature Recorded Following Different Treatments” value ([2]; 3 h) was 36.96 ± 0.24 °C, the “Rectal Temperature” value ([2]; 18 h after yeast injection (T0, before treatment)) was 38.60 ± 0.18 °C and the “Rectal Temperature Recorded Following Different Treatments” value ([2]; 24 h) was 36.50 ± 0.22 °C.
For `Oc1ccc2c3c1O[C@H]1[C@@H](O)CC[C@@]4(O)[C@@H](C2)N(CC2CCC2)CC[C@]314` [nalbuphine], the “increase in AUC of thermal response latency vs control” value [3] was 154.7%.
In the case of `O=C(O)c1ccc(O)cc1` [p-Hydroxybenzoic acid], the “effect on edema thickness” value [4] is given as “significantly decreased the edema thickness”.
For `O=C(/C=C/c1ccc(O)c(O)c1)O[C@@H]1C[C@](O)(C(=O)O)C[C@@H](O)[C@H]1O` [chlorogenic acid], the “effect on leukocyte migration” value [5] is listed as “inhibited leukocyte migration”.
In the case of `O=C(O)/C=C/c1ccc(O)c(O)c1` [caffeic acid], the “effect on leukocyte migration” value [5] is given as “inhibited leukocyte migration”.
With `O=C(O)Cc1ccccc1Nc1c(Cl)cccc1Cl` [Diclofenac] the “decrease of the number of leukocytes” value [6] was 42%, the “reduction of the control writhes” value [7] was 67% and the “inhibition of vascular permeability” value [8] was 67%. For the same molecule, the “LOX IC50” value [9] was 2.83 ± 0.07 µg/mL.
